This passage reports GI50 and TGI results from PubChem BioAssay (NCI).

Among the test systems are HCT-116 colon; SK-MEL-2 melanoma; A549 NSCLC; SR leukemia; OVCAR-8 ovarian; U251 CNS; HOP-92 NSCLC; RXF 393 renal; M14 melanoma; OVCAR-4 ovarian.
Experiment in all cases: NCI anticancer screen, dose series, 48 h

Where “and” joins values, the source holds several entries; their conditions need not be identical. Equal values may be shown once.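 A five-concentration, 48-hour dose response in 96-well plates underlies each endpoint, interpolated linearly between surrounding concentrations. Here, GI50 denotes the concentration required for 50% inhibition of growth. At the TGI there is no net growth.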

`CN1CCN(c2ccc(OC(F)(F)F)c(Nc3ncc4c(n3)-c3c(c(C(N)=O)nn3CCO)CC4)c2)CC1`: the GI50 with HCT-116 colon was 0.0353 µM and 0.0452 µM; in the test with SK-MEL-2 melanoma it was 0.0543 µM; in the test on A549 NSCLC, 0.0745 µM and 0.169 µM; in the test with SR leukemia it was 0.0231 µM and 0.03 µM; with OVCAR-8 ovarian, 0.0506 µM and 0.0624 µM; with U251 CNS, 0.052 µM and 0.0628 µM. In addition, the GI50 in the test on HOP-92 NSCLC is 0.545 µM and 0.242 µM; with RXF 393 renal it was 0.398 µM and 0.102 µM; with M14 melanoma, 0.0404 µM and 0.0428 µM; in the test with OVCAR-4 ovarian, 6.92 µM and 1.39 µM. Besides, the TGI in the test on HCT-116 colon was 18.7 µM and > 10 µM; in the test on SK-MEL-2 melanoma, above 10 µM; in the test with A549 NSCLC it was 16 µM and > 10 µM; in the test on SR leukemia, 18.6 µM and > 3.19 µM; in the test on OVCAR-8 ovarian, 61.5 µM and > 4.59 µM; with U251 CNS, 21.7 µM and > 10 µM. The TGI with HOP-92 NSCLC was 14.3 µM and > 3.62 µM; in the test on RXF 393 renal, 21 µM and > 10 µM; in the test on OVCAR-4 ovarian it was 41.2 µM and > 10 µM.

Consider `O=C1CC[C@H](N2Cc3c(OCc4ccc(CN5CCOCC5)cc4)cccc3C2=O)C(=O)N1`, for which the GI50 in the test on HCT-116 colon was above 100 µM; in the test with SK-MEL-2 melanoma it was above 100 µM; with A549 NSCLC it was above 100 µM; in the test on SR leukemia, 4.83 µM; in the test on OVCAR-8 ovarian, above 100 µM; in the test with U251 CNS, above 100 µM. The GI50 with HOP-92 NSCLC, in the test on RXF 393 renal, in the test with M14 melanoma and in the test with OVCAR-4 ovarian was above 100 µM in each case. Also, the TGI in the test on HCT-116 colon, in the test on SK-MEL-2 melanoma, in the test on A549 NSCLC, in the test on SR leukemia, in the test on OVCAR-8 ovarian and in the test on U251 CNS was above 100 µM each time. The TGI with HOP-92 NSCLC, in the test on RXF 393 renal, with M14 melanoma and in the test with OVCAR-4 ovarian was above 100 µM throughout.

On to `Cc1ccc(C(=O)NCCCOc2ccc(N3C(N)=NC(N)=NC3(C)C)cc2Cl)cc1S(=O)(=O)F`, for which the GI50 was 15 µM in the test on HCT-116 colon; above 100 µM in the test on SK-MEL-2 melanoma; 39.5 µM in the test with A549 NSCLC; above 100 µM in the test on SR leukemia; 85.8 µM with OVCAR-8 ovarian; 7.72 µM in the test with U251 CNS. Besides, the GI50 is above 100 µM in the test on HOP-92 NSCLC, above 100 µM in the test with RXF 393 renal, 44.7 µM with M14 melanoma and 81.2 µM in the test on OVCAR-4 ovarian. Further, the TGI in the test with HCT-116 colon, with SK-MEL-2 melanoma, with A549 NSCLC, in the test on SR leukemia, in the test on OVCAR-8 ovarian and in the test with U251 CNS was above 100 µM throughout. The TGI in the test on HOP-92 NSCLC, with RXF 393 renal, in the test with M14 melanoma and with OVCAR-4 ovarian was above 100 µM throughout.

In the case of `O=C1/C=C/[C@@H](O)[C@@H]2C[C@@H](O)C[C@H]2/C=C/CCC[C@H](CCc2ccc3ncccc3c2)O1`, the GI50 in the test with HCT-116 colon is 0.245 µM; in the test on SK-MEL-2 melanoma, 0.266 µM; with A549 NSCLC it was 0.308 µM; in the test with SR leukemia, 0.296 µM; with OVCAR-8 ovarian it was 0.275 µM; in the test on U251 CNS, 0.347 µM. For the same compound, the GI50 was 2.77 µM in the test on HOP-92 NSCLC, 0.0945 µM in the test on RXF 393 renal, 0.327 µM in the test with M14 melanoma and 0.253 µM in the test with OVCAR-4 ovarian. Also, the TGI in the test with HCT-116 colon is 0.693 µM; in the test on SK-MEL-2 melanoma, 0.654 µM; in the test on A549 NSCLC, above 57.9 µM; in the test with SR leukemia, 6.5 µM; in the test with OVCAR-8 ovarian, above 47 µM; with U251 CNS it was above 100 µM. Moreover, the TGI in the test with HOP-92 NSCLC was above 100 µM; in the test on RXF 393 renal, 0.419 µM; in the test with M14 melanoma it was 18.3 µM.

Consider `[N-]=[N+]=NCCCn1c2c(c3ccc([N+](=O)[O-])cc3c1=O)C(=O)c1cc3c(cc1-2)OCO3`, for which the GI50 in the test on HCT-116 colon was below 0.01 µM; in the test on SK-MEL-2 melanoma it was 2.58 µM; in the test on A549 NSCLC it was below 0.0388 µM; in the test on SR leukemia, below 0.01 µM; in the test with OVCAR-8 ovarian, below 0.0446 µM; with U251 CNS, below 0.0174 µM. The GI50 in the test with HOP-92 NSCLC was 2.56 µM; in the test with RXF 393 renal, 0.39 µM; with M14 melanoma it was below 0.01 µM; in the test on OVCAR-4 ovarian, 4.83 µM. The TGI is 1.18 µM with HCT-116 colon; 22.3 µM with SK-MEL-2 melanoma; 2.87 µM in the test with A549 NSCLC; below 0.01 µM in the test on SR leukemia; 16.6 µM in the test with OVCAR-8 ovarian; 1.04 µM in the test on U251 CNS. Moreover, the TGI is above 33.5 µM in the test with HOP-92 NSCLC, 40.3 µM with RXF 393 renal, below 0.01 µM in the test on M14 melanoma and above 100 µM in the test on OVCAR-4 ovarian.

Regarding `N#Cc1ccc(-c2c(-c3ncn[nH]3)sc(N3CCOCC3)c2C#N)c(F)c1`, the GI50 in the test on HCT-116 colon is 0.553 µM; with SK-MEL-2 melanoma, 1.92 µM; with A549 NSCLC, 0.666 µM; in the test with SR leukemia it was 1.88 µM; in the test on OVCAR-8 ovarian it was 1.85 µM; in the test on U251 CNS it was 1.03 µM. Besides, the GI50 is 0.0663 µM in the test on HOP-92 NSCLC, 0.246 µM in the test with RXF 393 renal and 2.82 µM with OVCAR-4 ovarian. The TGI was 37.6 µM with HCT-116 colon; 10.7 µM in the test on SK-MEL-2 melanoma; 12.7 µM with A549 NSCLC; 19.8 µM with SR leukemia; above 100 µM with OVCAR-8 ovarian; 21.7 µM in the test on U251 CNS. The TGI in the test on HOP-92 NSCLC came to 0.973 µM; with RXF 393 renal it was 1.68 µM; in the test with OVCAR-4 ovarian, 36.6 µM.

As for `Nc1ccccc1C#C/C=C\C#CC#C/C=C\C#Cc1ccccc1N`, the GI50 with HCT-116 colon was 3.84 µM; with SK-MEL-2 melanoma it was 14.2 µM; in the test on A549 NSCLC it was 2.77 µM; in the test with SR leukemia, 1.42 µM; in the test on OVCAR-8 ovarian it was 4.8 µM; in the test with U251 CNS it was 5.61 µM. The GI50 is 1.77 µM with HOP-92 NSCLC, 2.18 µM with RXF 393 renal and 14.6 µM with OVCAR-4 ovarian. Further, the TGI with HCT-116 colon is 15.9 µM; in the test on SK-MEL-2 melanoma, 65.3 µM; with A549 NSCLC, 16.4 µM; in the test on SR leukemia, 7 µM; in the test on OVCAR-8 ovarian, 29.5 µM; in the test on U251 CNS, 22.2 µM. The TGI with HOP-92 NSCLC was 8.35 µM; in the test on RXF 393 renal, 6.22 µM; in the test on OVCAR-4 ovarian it was 92.8 µM.

For the compound `NCCCOc1cc2ccccc2cc1C(=O)Nc1ccc(Cl)cc1OC(=O)c1cc2ccccc2cc1OCCCN`, the GI50 was 0.175 µM in the test with HCT-116 colon; 0.312 µM in the test on SK-MEL-2 melanoma; 0.257 µM in the test with SR leukemia; 1.64 µM in the test with HOP-92 NSCLC; 0.61 µM in the test with RXF 393 renal; 0.321 µM in the test on M14 melanoma. Also, in the test with OVCAR-4 ovarian, the GI50 was 0.146 µM. In addition, the TGI with HCT-116 colon was 0.313 µM; in the test on SK-MEL-2 melanoma it was 1.2 µM; in the test with SR leukemia, 1.48 µM; with HOP-92 NSCLC, 3.71 µM; in the test with RXF 393 renal it was 1.69 µM; in the test on M14 melanoma it was 1.26 µM. The compound further had a TGI in the test with OVCAR-4 ovarian of 0.306 µM.
